# From PMC11079024, “Identification of a family of species-selective complex I inhibitors as potential anthelmintics” (Nature Communications, 2024)
# Like-named read-outs stand apart in the source and are kept apart here.
# What was measured:
# [1] = target: B. taurus (heart) complex I (Bos taurus, UniProt P03887+P17694+P42026); assay: biochemical; assay type: biochemical
# In short: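 Complex I activity followed as DCIP reduction (600 nm, 30 s reads, 15 min) with 80 μM NADH and 60 μM decylubiquinone in 25 mM KPi pH 7.5 containing 2 μM antimycin A and 2 mM KCN. Freeze-thawed mouse or bovine heart mitochondria at 0.2 mg/mL; initial-rate percent of solvent control, single-point 100 μM or dose-response.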
# [2] = target: C. elegans (N2) complex I (NADH:ubiquinone oxidoreductase) (Caenorhabditis elegans, UniProt P24887+Q93873+Q94360); assay: biochemical; assay type: biochemical
# In short: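 Mitochondria, 0.2 mg/mL protein, freeze-thawed three times, assayed in 25 mM KPi pH 7.5 with BSA, 80 μM NADH, 60 μM decylubiquinone, 160 μM DCIP, antimycin A and KCN. Rate from initial linear slope of A600 over 15 min. % of solvent control.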
# B. taurus (heart) complex I, sequence (P03887 whole entry): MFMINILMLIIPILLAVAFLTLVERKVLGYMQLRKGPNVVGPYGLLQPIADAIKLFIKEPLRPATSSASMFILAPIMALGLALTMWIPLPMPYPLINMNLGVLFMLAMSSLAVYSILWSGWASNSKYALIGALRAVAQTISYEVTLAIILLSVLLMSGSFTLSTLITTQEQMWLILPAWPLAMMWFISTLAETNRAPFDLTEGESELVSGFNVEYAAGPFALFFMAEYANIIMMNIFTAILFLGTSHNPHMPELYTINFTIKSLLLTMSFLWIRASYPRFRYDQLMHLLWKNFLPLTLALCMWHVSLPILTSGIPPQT
# B. taurus (heart) complex I, sequence (P17694 34-463): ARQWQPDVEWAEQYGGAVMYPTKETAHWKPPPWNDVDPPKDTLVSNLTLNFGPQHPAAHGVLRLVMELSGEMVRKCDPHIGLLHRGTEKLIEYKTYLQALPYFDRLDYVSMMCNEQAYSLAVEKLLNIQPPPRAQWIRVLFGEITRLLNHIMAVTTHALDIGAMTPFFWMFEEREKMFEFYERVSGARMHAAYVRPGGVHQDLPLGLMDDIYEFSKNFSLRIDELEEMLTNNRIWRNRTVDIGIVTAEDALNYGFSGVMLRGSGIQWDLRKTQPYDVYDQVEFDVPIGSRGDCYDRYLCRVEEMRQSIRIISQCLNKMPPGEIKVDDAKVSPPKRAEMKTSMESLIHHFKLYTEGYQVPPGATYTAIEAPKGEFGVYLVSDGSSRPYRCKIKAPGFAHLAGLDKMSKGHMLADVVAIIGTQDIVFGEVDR
# B. taurus (heart) complex I, sequence (P42026 38-216): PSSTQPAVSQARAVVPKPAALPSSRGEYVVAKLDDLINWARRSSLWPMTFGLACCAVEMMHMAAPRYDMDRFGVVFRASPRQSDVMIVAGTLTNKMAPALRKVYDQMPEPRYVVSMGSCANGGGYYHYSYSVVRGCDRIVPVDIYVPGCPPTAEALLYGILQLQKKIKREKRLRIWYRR
# C. elegans (N2) complex I (NADH:ubiquinone oxidoreductase), sequence (Q94360 17-199): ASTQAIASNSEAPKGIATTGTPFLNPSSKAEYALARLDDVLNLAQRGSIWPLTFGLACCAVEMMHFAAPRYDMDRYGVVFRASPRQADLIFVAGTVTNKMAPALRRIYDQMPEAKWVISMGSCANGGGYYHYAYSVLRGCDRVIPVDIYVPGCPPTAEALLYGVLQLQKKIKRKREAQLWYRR
# C. elegans (N2) complex I (NADH:ubiquinone oxidoreductase), sequence (P24887 whole entry): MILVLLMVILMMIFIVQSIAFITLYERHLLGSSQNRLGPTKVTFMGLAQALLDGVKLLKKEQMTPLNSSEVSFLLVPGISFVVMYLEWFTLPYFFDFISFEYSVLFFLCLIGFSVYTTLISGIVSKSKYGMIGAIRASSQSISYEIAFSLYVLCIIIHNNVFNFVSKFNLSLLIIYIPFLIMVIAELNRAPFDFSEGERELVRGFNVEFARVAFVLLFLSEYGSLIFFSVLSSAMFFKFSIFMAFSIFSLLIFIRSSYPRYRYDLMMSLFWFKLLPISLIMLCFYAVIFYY
# C. elegans (N2) complex I (NADH:ubiquinone oxidoreductase), sequence (Q93873 31-482): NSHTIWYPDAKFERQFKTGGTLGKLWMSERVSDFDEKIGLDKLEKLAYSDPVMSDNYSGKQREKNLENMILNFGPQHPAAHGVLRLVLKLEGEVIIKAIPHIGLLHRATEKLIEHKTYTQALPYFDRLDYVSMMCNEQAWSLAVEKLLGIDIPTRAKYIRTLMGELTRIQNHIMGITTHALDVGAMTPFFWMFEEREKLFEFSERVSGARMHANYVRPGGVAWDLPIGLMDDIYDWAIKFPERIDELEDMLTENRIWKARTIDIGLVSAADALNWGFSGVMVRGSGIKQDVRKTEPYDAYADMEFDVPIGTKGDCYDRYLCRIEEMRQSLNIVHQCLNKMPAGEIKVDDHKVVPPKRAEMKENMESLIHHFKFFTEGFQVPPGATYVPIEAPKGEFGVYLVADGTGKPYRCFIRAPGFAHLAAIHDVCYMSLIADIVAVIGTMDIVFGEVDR
compound,measurement,setting,value
Nc1nc2ccccc2n1Cc1ccc(Cl)cc1 [Compound 5652765],IC50,"[1]; B. taurus heart mitochondria, estimated from fitted dose-response curves, read-out: B. taurus Complex I IC50",2270 nM
same,activity at 0.0001 µM,"[1]; Dose 0.0001 µM, read-out: B. taurus mitochondrial complex I activity",93.5%
same,activity at 0.0005 µM,"[1]; Dose 0.0005 µM, read-out: B. taurus mitochondrial complex I activity",96.1%
same,activity at 0.001 µM,"[1]; Dose 0.001 µM, read-out: B. taurus mitochondrial complex I activity",91%
same,activity at 0.0025 µM,"[1]; Dose 0.0025 µM, read-out: B. taurus mitochondrial complex I activity",95.6%
same,activity at 0.005 µM,"[1]; Dose 0.005 µM, read-out: B. taurus mitochondrial complex I activity",88.8%
same,activity at 0.013 µM,"[1]; Dose 0.013 µM, read-out: B. taurus mitochondrial complex I activity",88.3%
same,activity at 0.025 µM,"[1]; Dose 0.025 µM, read-out: B. taurus mitochondrial complex I activity",83.3%
same,activity at 0.063 µM,"[1]; Dose 0.063 µM, read-out: B. taurus mitochondrial complex I activity",87.9%
same,activity at 0.125 µM,"[1]; Dose 0.125 µM, read-out: B. taurus mitochondrial complex I activity",79.5%
same,activity at 0.313 µM,"[1]; Dose 0.313 µM, read-out: B. taurus mitochondrial complex I activity",76.3%
same,activity at 0.625 µM,"[1]; Dose 0.625 µM, read-out: B. taurus mitochondrial complex I activity",72.5%
same,activity at 1.5 µM,"[1]; Dose 1.5 µM, read-out: B. taurus mitochondrial complex I activity",54.3%
same,activity at 3 µM,"[1]; Dose 3 µM, read-out: B. taurus mitochondrial complex I activity",36.4%
same,activity at 15 µM,"[1]; Dose 15 µM, read-out: B. taurus mitochondrial complex I activity",4.61%
same,activity at 37.5 µM,"[1]; Dose 37.5 µM, read-out: B. taurus mitochondrial complex I activity",0.42%
same,activity at 75 µM,"[1]; Dose 75 µM, read-out: B. taurus mitochondrial complex I activity",0.3%
same,Log IC50 B. taurus complex I,"[1]; log10 of IC50 in µM, B. taurus mitochondria",0.36 µM
same,activity at 0.0001 µM,"[2]; Dose 0.0001 µM, read-out: C. elegans mitochondrial complex I activity",86.1%
same,activity at 0.0005 µM,"[2]; Dose 0.0005 µM, read-out: C. elegans mitochondrial complex I activity",92.1%
same,activity at 0.001 µM,"[2]; Dose 0.001 µM, read-out: C. elegans mitochondrial complex I activity",93.5%
same,activity at 0.0025 µM,"[2]; Dose 0.0025 µM, read-out: C. elegans mitochondrial complex I activity",93.8%
same,activity at 0.005 µM,"[2]; Dose 0.005 µM, read-out: C. elegans mitochondrial complex I activity",90.5%
same,activity at 0.013 µM,"[2]; Dose 0.013 µM, read-out: C. elegans mitochondrial complex I activity",90.4%
same,activity at 0.025 µM,"[2]; Dose 0.025 µM, read-out: C. elegans mitochondrial complex I activity",78.8%
same,activity at 0.063 µM,"[2]; Dose 0.063 µM, read-out: C. elegans mitochondrial complex I activity",76.6%
same,activity at 0.125 µM,"[2]; Dose 0.125 µM, read-out: C. elegans mitochondrial complex I activity",72.5%
same,activity at 0.313 µM,"[2]; Dose 0.313 µM, read-out: C. elegans mitochondrial complex I activity",39.7%
same,activity at 0.625 µM,"[2]; Dose 0.625 µM, read-out: C. elegans mitochondrial complex I activity",49.3%
same,activity at 1.5 µM,"[2]; Dose 1.5 µM, read-out: C. elegans mitochondrial complex I activity",25.2%
same,activity at 3 µM,"[2]; Dose 3 µM, read-out: C. elegans mitochondrial complex I activity",11.5%
same,activity at 15 µM,"[2]; Dose 15 µM, read-out: C. elegans mitochondrial complex I activity",0.44%
same,activity at 37.5 µM,"[2]; Dose 37.5 µM, read-out: C. elegans mitochondrial complex I activity",0.7%
same,activity at 75 µM,"[2]; Dose 75 µM, read-out: C. elegans mitochondrial complex I activity",0.75%
same,IC50,"[2]; in vitro complex I dose response on C. elegans mitochondria, average of at least two biological replicates, fit in R (DRC), read-out: IC50 C. elegans complex I",470 nM
same,Log IC50 C. elegans complex I,"[2]; log10 of IC50 in µM, C. elegans mitochondria",-0.33 µM
same,IC50,"[2]; wild-type (N2) mitochondria, read-out: C. elegans Complex I IC50",470 nM
same,IC50,"[2]; wild-type C. elegans mitochondria, estimated from fitted dose-response curves, read-out: C. elegans Complex I IC50",470 nM
